Test results: patent EP1001770B1, “TAZAROTENE AND UVB PHOTOTHERAPY TREATMENT FOR PSORIASIS” (ALLERGAN, INC., priority 1997, dated 1998)

What was measured:
stable plaque psoriasis = test: Clinical study of Tazarotene 0.1% gel plus UVB phototherapy versus vehicle plus UVB or UVB alone: efficacy on target lesions; type: in vivo, humans
Source text: (§1) The Study objective was to assess safety and efficacy of pre-treatment with Tazarotene 0.1% gel and UVB phototherapy in comparison with the Tazarotene vehicle (placebo) and UVB phototherapy and UVB phototherapy, alone, for 10 weeks. During UVB phototherapy, topical agents were applied three times weekly to the target lesion by the phototherapy nurse. The study was a multicenter, investigator-masked study including 60 subjects and 120 target lesions. During the two-week pre-UVB phototherapy period the patients were randomly assigned to receive two of the following treatments: Tazarotene 0.1% gel once a day; vehicle gel once a day; or no treatment. The topical agents were applied once daily. Prior to UVB therapy, the minimal erythemal dose (MED) was assessed using a range of 20 mJoules/cm^2 up to 100 mJoules/cm^2. Initial starting UVB dose is 25% of MED. If MED is immeasurable, starting dose is 25 mJoules/cm^2. During the ten-week UVB phototherapy period the patients were treated with UVB therapy three times a week and topical therapy three times weekly (0.1% Tazarotene gel, vehicle gel, or no treatment) administered by the phototherapy nurse after UVB exposure. Study population was as follows: male or non-reproductive female; 18 years or older; stable plaque psoriasis; two bilaterally symmetrical plaques accessible to phototherapy; not exceeding 50% of TBS; baseline plaque elevation of at least four (moderate, in 0-8 scoring system); no oral retinoid within two months; no excessive vitamin A intake; no oral psoriatic therapy (other than retinoid) or PUVA within one month; no UVB within two weeks; no significant systemic disease or immunosuppression. The UVB exposure was increased until either improvement in psoriasis was noted or MED was reached. If one target lesion reached MED earlier than the other, a photo-opaque covering was applied to the former so the latter site could still be treated with a higher dose of UVB irradiation. If both target lesions cleared, UVB was discontinued. […] The following evaluation criteria was used: • Efficacy Variable • Plaque elevation, scaling, erythema: • Grading Scale • 0 = none, 2= mild, 4=moderate, 6=severe, 8=very severe (with whole-point increments (1, 3, 5, 7) serving as mid-points) • Global response to treatment • Total cumulative UVB exposure (mJoules/cm^2)
Treatment success is defined as moderate response or better.

[1] = Same clinical study: adverse events and tolerability; type: in vivo, humans
Source text: as §1
The following adverse events were reported during the study: […]

[2] = adverse events reported during the study (count), with UVB phototherapy

## CCOC(=O)c1ccc(C#Cc2ccc3c(c2)C(C)(C)CCS3)nc1 [Tazarotene]
Stable plaque psoriasis; Figure 1, Tazarotene plus UVB compared with UVB treatment alone
  reduction in plaque: more effective
Stable plaque psoriasis; Figure 2, Tazarotene plus UVB compared with UVB treatment alone
  reduction in scaling: more effective
Stable plaque psoriasis; Figure 3, Tazarotene plus UVB compared with UVB treatment alone
  reduction in erythema: more effective
Stable plaque psoriasis; Figure 4, Tazarotene and UVB phototherapy, by day 81, success = moderate response or better
  treatment success rate: 100%
Stable plaque psoriasis; Figure 5, Tazarotene and UVB compared with UVB alone or UVB with vehicle (placebo)
  reductions in plaque: greater
Stable plaque psoriasis; Figure 6, Tazarotene and UVB compared with UVB alone or UVB with vehicle (placebo)
  reductions in scaling: greater
Stable plaque psoriasis; Figure 7, Tazarotene and UVB compared with UVB alone or UVB with vehicle (placebo)
  reductions in erythema: greater
Stable plaque psoriasis; Figure 8, Tazarotene and UVB treatment, at 81 days
  success rate: 100%
Stable plaque psoriasis; Figure 8, Tazarotene and UVB, at day 53
  success: about 90%
Stable plaque psoriasis; Tazarotene and UVB compared with vehicle and UVB
  time to reach treatment success: more quickly
Stable plaque psoriasis; Tazarotene and UVB compared with vehicle and UVB or UVB alone
  overall effectiveness in treating psoriasis: more effective
[1]; [2]
  Burning sensation: 1
  Itching: 1
  Lesional irritation: 0
  Perilesional irritation: 2
  Perilesional tenderness: 0
[1]; all reported adverse events
  severity of adverse events: mild
